Source: patent EP4534542A1, “THIOSUGAR BASED ISOTHIOCYANATES AND USES THEREOF” (Universidad de Sevilla, priority 2023, dated 2025)
Where two headings read alike, the source gives them in different places.

Key:
HaCaT cells = experiment: Cell viability assay (resazurin), cytotoxicity in non-malignant cells; assay type: cell-based, human; conditions: Homo sapiens, HaCaT, read-out: IC50 HaCaT (Non-malignant keratinocyte)
Description: (§1) Cells were grown in Dulbecco's Modified Eagle's Medium (DMEM) supplemented with 100 U/mL penicillin, 100 µg/mL streptomycin and 10% fetal bovine serum. HL60 cell line (acute myeloid leukaemia, AML) was obtained from ATCC. It was cultured in IMDM medium supplemented with 100 U/mL penicillin, 100 µg/mL streptomycin and 10% fetal bovine serum. U937 (AML) and Jurkat cells (ALL) were obtained from DMSZ, Braunschweig, Germany, and ATCC, respectively. They were cultivated in RPMI medium, supplemented with 100 U/mL penicillin, 100 µg/mL streptomycin and 10% fetal bovine serum. […] All cell lines were cultured at 37 ° C with 5% CO2 in a humidified incubator. Cell culture reagents were purchased from Biowest. Exponentially growing cells (3000-6000 cells per well) were seeded in 96-well plates. After 24 hours, cells were treated with the drugs for 72 hours. The cell viability was then estimated with the resazurin assay, a colorimetric technique based on the capability of viable cells to reduce the blue reagent resazurin to the pink-soluble product resorufin. The amount of resorufin produced is proportional to the number of viable cells. Briefly, cells were washed once with phosphate buffered saline (PBS) and 150 µL resazurin (20 µg/mL in medium) was added to each well. The plates were incubated for 3 hours at 37 °C, 5% CO2, and finally optical densities were measured at 540 and 620 nm with a multiwell plate spectrophotometer reader (Multiskan EX Labsystems). Cell viability was calculated as a percentage compared to non-treated cells. The results were expressed as the means ± standard error of the mean (SEM). All data are from at least three independent experiments.

[1] = test system: A549 (human lung adenocarcinoma cells); experiment: Cell viability assay (resazurin), cytotoxic activity against solid tumours; assay type: cell-based; conditions: for IC50: Homo sapiens, read-out: IC50 A549 (Lung adenocarcino ma); for S.I. A549 (Selectivity Index): IC50 HaCaT divided by IC50 A549, mean of independent experiments
Description: as §1, with “The plates were incubated for 3 hours at 37 °C, 5% CO2, and finally optical densities were measured at 540 and 620 nm with a multiwell plate spectrophotometer reader (Multiskan EX Labsystems).” left out, “experiments. The selectivity index (S.I.) values were calculated over each cancer cell line as the mean of the IC50 value in the non-malignant cell line (HaCaT) by the IC50 in the respective cancer cell line obtained in each independent experiment.” for “experiments.”

[2] = test system: MeWo (human melanoma cells); experiment: as above; assay type: cell-based; conditions: for IC50: Homo sapiens, MeWo, read-out: IC50 MeWo (Melanoma; BRAF WT); for S.I. MeWo (Selectivity Index): IC50 HaCaT divided by IC50 MeWo, mean of independent experiments
Description: as §1, with “The plates were incubated for 3 hours at 37 °C, 5% CO2, and finally optical densities were measured at 540 and 620 nm with a multiwell plate spectrophotometer reader (Multiskan EX Labsystems).” left out, “experiments. The selectivity index (S.I.) values were calculated over each cancer cell line as the mean of the IC50 value in the non-malignant cell line (HaCaT) by the IC50 in the respective cancer cell line obtained in each independent experiment.” for “experiments.”

[3] = test system: T24 (human bladder cancer cells); experiment: as above; assay type: cell-based; conditions: for IC50: Homo sapiens, read-out: IC50 T24 (Bladder cancer); for S.I. T24 (Selectivity Index): IC50 HaCaT divided by IC50 T24, mean of independent experiments
Description: as §1, with “The plates were incubated for 3 hours at 37 °C, 5% CO2, and finally optical densities were measured at 540 and 620 nm with a multiwell plate spectrophotometer reader (Multiskan EX Labsystems).” left out, “experiments. The selectivity index (S.I.) values were calculated over each cancer cell line as the mean of the IC50 value in the non-malignant cell line (HaCaT) by the IC50 in the respective cancer cell line obtained in each independent experiment.” for “experiments.”

OPM-2 (Multiple myeloma) = experiment: Antileukemic activity, cell viability (CCK-8 Cell Counting Kit); assay type: cell-based; conditions: Homo sapiens, 18 h incubation, compounds 0 - 100 µM, read-out: IC50 Cancer cells OPM-2 (Multiple myeloma)
Description: (§2) HaCaT cells (human keratinocytes, reference control), A549 (human lung adenocarcinoma cells), MeWo (human melanoma cells) and T24 (human bladder cancer cells) were purchased from Cell Lines Service (CLS). Cells were grown in Dulbecco's Modified Eagle's Medium (DMEM) supplemented with 100 U/mL penicillin, 100 µg/mL streptomycin and 10% fetal bovine serum. HL60 cell line (acute myeloid leukaemia, AML) was obtained from ATCC. It was cultured in IMDM medium supplemented with 100 U/mL penicillin, 100 µg/mL streptomycin and 10% fetal bovine serum. U937 (AML) and Jurkat cells (ALL) were obtained from DMSZ, Braunschweig, Germany, and ATCC, respectively. They were cultivated in RPMI medium, supplemented with 100 U/mL penicillin, 100 µg/mL streptomycin and 10% fetal bovine serum. OPM-2 cell line (MM), was obtained from DMSZ, Braunschweig, Germany and cultured in RPMI medium supplemented with 100 U/mL penicillin, 100 µg/mL streptomycin, 10% fetal bovine serum and 1X GlutaMAXTM. All cell lines were cultured at 37 ° C with 5% CO2 in a humidified incubator. Cell culture reagents were purchased from Biowest.
(§3) For the leukemic cell lines, the CCK-8 Cell Counting Kit (Dojindo Molecular Technologies) was used according to manufacturers instructions. Briefly, 50.000 cells were seeded in each well of a 96 well plate, and they were treated with increased amounts (0 - 100 µM) of each of the compounds, and incubated for 18 h at 37 °C, 5% CO2. After this period, 7 µl of the CCK-8 reagent were added to each well, and cells were further incubated for 2 h at 37 °C, 5% CO2. OD at 450 nm was obtained using a MultiskanTM GO microplate reader (Thermo Fisher Scientific, Waltham, MA, EE.UU). Cell viability in each condition was normalized to the measurement obtained in the non treated samples (100%), and were represented as average ± standard error of the mean (SEM).

[4] = test system: U937 (Acute myeloid leukaemia); experiment: as above; assay type: cell-based; conditions: Homo sapiens, U-937; 18 h incubation, compounds 0 - 100 µM; read-out: IC50 Cancer cells U937 (Acute myeloid leukaemia)
Description: as §2, §3

[5] = test system: Jurkat (Acute lymphoblastic leukaemia); experiment: as above; assay type: cell-based; conditions: Homo sapiens, 18 h incubation, compounds 0 - 100 µM, read-out: IC50 Cancer cells Jurkat (Acute lymphoblastic leukaemia)
Description: as §2, §3

[6] = test system: HL60 (Acute myeloid leukaemia); experiment: as above; assay type: cell-based; conditions: Homo sapiens, HL-60; 18 h incubation, compounds 0 - 100 µM; read-out: IC50 Cancer cells HL60 (Acute myeloid leukaemia)
Description: as §2, §3

[7] = 72 h treatment, resazurin assay, mean ± SEM
[8] = A549, 72 h treatment, resazurin assay, mean ± SEM

Row | SMILES | IC50 (OPM-2 (Multiple myeloma)) [µM] | IC50 [4] [µM] | IC50 [5] [µM] | IC50 [6] [µM] | IC50 (HaCaT cells; 72 h) [µM] | IC50 ([1]; A549, 72 h) [µM] | S.I. A549 (Selectivity Index) [1] | IC50 ([2]; 72 h) [µM] | S.I. MeWo (Selectivity Index) [2] | IC50 ([3]; 72 h) [µM] | S.I. T24 (Selectivity Index) [3] | IC50 (HaCaT cells; [7]) [µM] | IC50 [1, 8] [µM] | IC50 [2, 7] [µM] | IC50 [3, 7] [µM]
1 | CC(=O)OC[C@H]1O[C@@H](S(C)(=O)=O)[C@H](OC(C)=O)[C@@H](N=C=S)[C@@H]1OC(C)=O [Compound 19β, Methyl 2,4,6-tri-O-acetyl-3-isothiocyanato-1,3-dideoxy-1-sulfonyl-β-D-glucopyranose] | ~48.5 | 45.7 | 37.1 | ~24.7 | 138 ± 22.5 | 98 ± 24 | 1.5±0.1 | 77.1 ± 14.4 | 1.9±0.3 | 51.8 ± 2.7 | 2.6±0.3 |  |  |  | 
2 | C[S+]([O-])CCCN=C=S (racemic) [rac-5, 1-isothiocyanato-3-(methylsulfinyl)propane, reference compound] | 19.4 | 8.5 | 13.7 | 11 | 33 ± 5.8 | 20.7 ± 5.7 | 1.8±0.3 | 32.8 ± 5.8 | 1.0±0.1 | 12.2 ± 2.9 | 2.9±0.3 |  |  |  | 
3 | CS(=O)(=O)CCCN=C=S [Compound 6, 1-isothiocyanato-3-(methylsulfonyl)propane, reference compound] | 13 | 8.4 | 10.3 | 7 | 35.9 ± 7.8 | 25.2 ± 9.3 | 1.9±0.4 | 29.5 ± 8.7 | 1.3±0.2 | 10.7 ± 2.2 | 3.3±0.1 |  |  |  | 
4 | CC(=O)OC[C@H]1O[C@H](Sc2ccccc2)[C@H](OC(C)=O)[C@@H](N=C=S)[C@@H]1OC(C)=O [Compound 15α, Phenyl 2,4,6-tri-O-acetyl-3-isothiocyanato-1,3-dideoxy-1-thio-α-D-glucopyranoside] | 10.2 | 8.3 | 14.4 | 4.2 |  |  | 1.4±0.3 |  | 1.0±0.1 |  | 1.2±0.1 | 17.7 ± 1 | 14.1 ± 2.9 | 18.8 ± 2.4 | 15.3 ± 2.1

The next lines start with results.

Row | IC50 (OPM-2 (Multiple myeloma)) [µM] | IC50 [4] [µM] | IC50 [5] [µM] | IC50 [6] [µM] | SMILES | IC50 (HaCaT cells; 72 h) [µM] | IC50 ([1]; A549, 72 h) [µM] | S.I. A549 (Selectivity Index) [1] | IC50 ([2]; 72 h) [µM] | S.I. MeWo (Selectivity Index) [2] | IC50 ([3]; 72 h) [µM] | S.I. T24 (Selectivity Index) [3] | IC50 (HaCaT cells; [7]) [µM] | IC50 [1, 8] [µM] | IC50 [2, 7] [µM] | IC50 [3, 7] [µM]
5 | 64.9 | ~51.2 | 128 | 36.9 | CC(=O)OCC1OC([S+](C)[O-])C(OC(C)=O)C(N=C=S)C1OC(C)=O [(SS)-16β, Methyl 2,4,6-tri-O-acetyl-3-isothiocyanato-1,3-dideoxy-1-(S)-sulfinyl-β-D-glucopyranoside] |  |  |  |  |  |  |  | > 100 | 109 ± 23.7 | 122 ± 20.7 | 94.2 ± 13.2
6 | 24.9 | ~24.2 | 18.7 | ~13 | CS[C@@H]1O[C@H](COC(C)=O)[C@@H](OC(C)=O)[C@H](N=C=S)[C@H]1OC(C)=O [Compound 13β, Methyl 2,4,6-tri-O-acetyl-3-isothiocyanato-1,3-dideoxy-1-thio-β-D-glucopyranoside] |  |  | 1.5±0.2 |  | 1.3±0.0 |  | 1.8±0.2 | 70 ± 4.6 | 51.4 ± 9.2 | 55.9 ± 4.8 | 42 ± 7.5
7 | 19.6 | ~47.3 | 46.3 | 7.4 | CC(=O)OC[C@H]1O[C@H]([S@+]([O-])c2ccccc2)[C@H](OC(C)=O)[C@@H](N=C=S)[C@@H]1OC(C)=O [(RS)-18α, Phenyl 2,4,6-tri-O-acetyl-3-isothiocyanato-1,3-dideoxy-1[(R)-sulfinyl]-α-D-glucopyranose] |  |  | 1.1±0.4 |  | 1.0±0.4 |  | 1.3±0.5 | 51 ± 17.6 | 55.7 ± 8.4 | 55.3 ± 7.6 | 48.6 ± 8.6
